For data set [1], the target named is 11-beta-hydroxysteroid dehydrogenase 1 (Homo sapiens, UniProt P28845). The data set can be described thus: Inhibition of 11beta-HSD1 in human microsomes by HTRF cortisol assay. Details: species or system Microsome.
Data set [2] concerns the target 11-beta-hydroxysteroid dehydrogenase 1 (Mus musculus, UniProt P50172). The data set can be described thus: Inhibition of 11beta-HSD1 in mouse C2C12 cells by HTRF cortisol assay. In kind it is cell-based.
Data set [3] is described as follows: Half life in human liver microsomes. In kind it is ADME, Microsome.
Data set [4] concerns the target T1, 11-beta-hydroxysteroid dehydrogenase type 2 (Homo sapiens) (UniProt P80365).
T1 sequence (whole entry): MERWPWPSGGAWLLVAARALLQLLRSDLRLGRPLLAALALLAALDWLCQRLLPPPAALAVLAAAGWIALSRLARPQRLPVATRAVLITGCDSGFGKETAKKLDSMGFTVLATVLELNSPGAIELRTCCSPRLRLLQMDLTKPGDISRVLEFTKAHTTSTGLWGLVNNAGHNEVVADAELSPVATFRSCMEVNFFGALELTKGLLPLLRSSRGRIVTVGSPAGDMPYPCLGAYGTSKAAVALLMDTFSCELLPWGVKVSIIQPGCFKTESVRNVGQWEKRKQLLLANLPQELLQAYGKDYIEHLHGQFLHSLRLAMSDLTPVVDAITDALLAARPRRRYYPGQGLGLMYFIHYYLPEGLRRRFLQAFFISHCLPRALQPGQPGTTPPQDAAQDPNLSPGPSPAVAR
The data set is described as follows: Inhibition of human 11beta-HSD2 overexpressed in HEK293 cells at 20 uM by HTRF cortisol assay. In kind it is cell-based.

Data set [5] addresses Voltage-gated inwardly rectifying potassium channel KCNH2 (Homo sapiens, UniProt Q12809). The data set is described as follows: Inhibition of human ERG.
Data set [6] can be described thus: Cmax in rat. In kind it is ADME, organism-based. The conditions noted are these: in vivo.
A short description of data set [7]: Oral bioavailability in rat. In kind it is ADME, organism-based. The settings on record: in vivo.
For the next data set, the species on record is Rattus norvegicus. The data set can be described thus: Clearance in rat. In kind it is ADME, organism-based. The settings on record: in vivo.
Data set [8] can be described thus: Half life in rat. In kind it is ADME, organism-based. The conditions noted are these: in vivo.

Here are results for six molecules from ChEMBL document CHEMBL1159080, “Discovery of cyclicsulfonamide derivatives as 11 beta-hydroxysteroid dehydrogenase 1 inhibitors” (Bioorg Med Chem Lett, 2010).

Sequence of 11-beta-hydroxysteroid dehydrogenase 1 (Homo sapiens, UniProt P28845) (P28845 whole entry): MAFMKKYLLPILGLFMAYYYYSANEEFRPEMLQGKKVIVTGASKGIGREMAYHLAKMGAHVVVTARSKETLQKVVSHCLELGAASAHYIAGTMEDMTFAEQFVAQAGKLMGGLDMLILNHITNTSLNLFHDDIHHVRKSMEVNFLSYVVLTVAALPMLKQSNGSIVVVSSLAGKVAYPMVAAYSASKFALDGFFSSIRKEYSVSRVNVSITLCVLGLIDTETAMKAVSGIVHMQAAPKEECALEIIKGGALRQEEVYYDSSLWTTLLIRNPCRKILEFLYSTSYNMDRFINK
Sequence of 11-beta-hydroxysteroid dehydrogenase 1 (Mus musculus, UniProt P50172) (P50172 whole entry): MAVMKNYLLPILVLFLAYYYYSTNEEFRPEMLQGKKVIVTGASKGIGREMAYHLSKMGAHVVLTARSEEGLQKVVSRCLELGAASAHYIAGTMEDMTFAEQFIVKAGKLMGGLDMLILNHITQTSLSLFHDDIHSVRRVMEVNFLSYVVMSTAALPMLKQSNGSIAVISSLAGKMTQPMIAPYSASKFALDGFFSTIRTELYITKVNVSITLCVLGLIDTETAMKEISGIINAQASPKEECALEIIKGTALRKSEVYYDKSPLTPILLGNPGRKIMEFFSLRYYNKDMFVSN
Sequence of Voltage-gated inwardly rectifying potassium channel KCNH2 (Q12809 whole entry): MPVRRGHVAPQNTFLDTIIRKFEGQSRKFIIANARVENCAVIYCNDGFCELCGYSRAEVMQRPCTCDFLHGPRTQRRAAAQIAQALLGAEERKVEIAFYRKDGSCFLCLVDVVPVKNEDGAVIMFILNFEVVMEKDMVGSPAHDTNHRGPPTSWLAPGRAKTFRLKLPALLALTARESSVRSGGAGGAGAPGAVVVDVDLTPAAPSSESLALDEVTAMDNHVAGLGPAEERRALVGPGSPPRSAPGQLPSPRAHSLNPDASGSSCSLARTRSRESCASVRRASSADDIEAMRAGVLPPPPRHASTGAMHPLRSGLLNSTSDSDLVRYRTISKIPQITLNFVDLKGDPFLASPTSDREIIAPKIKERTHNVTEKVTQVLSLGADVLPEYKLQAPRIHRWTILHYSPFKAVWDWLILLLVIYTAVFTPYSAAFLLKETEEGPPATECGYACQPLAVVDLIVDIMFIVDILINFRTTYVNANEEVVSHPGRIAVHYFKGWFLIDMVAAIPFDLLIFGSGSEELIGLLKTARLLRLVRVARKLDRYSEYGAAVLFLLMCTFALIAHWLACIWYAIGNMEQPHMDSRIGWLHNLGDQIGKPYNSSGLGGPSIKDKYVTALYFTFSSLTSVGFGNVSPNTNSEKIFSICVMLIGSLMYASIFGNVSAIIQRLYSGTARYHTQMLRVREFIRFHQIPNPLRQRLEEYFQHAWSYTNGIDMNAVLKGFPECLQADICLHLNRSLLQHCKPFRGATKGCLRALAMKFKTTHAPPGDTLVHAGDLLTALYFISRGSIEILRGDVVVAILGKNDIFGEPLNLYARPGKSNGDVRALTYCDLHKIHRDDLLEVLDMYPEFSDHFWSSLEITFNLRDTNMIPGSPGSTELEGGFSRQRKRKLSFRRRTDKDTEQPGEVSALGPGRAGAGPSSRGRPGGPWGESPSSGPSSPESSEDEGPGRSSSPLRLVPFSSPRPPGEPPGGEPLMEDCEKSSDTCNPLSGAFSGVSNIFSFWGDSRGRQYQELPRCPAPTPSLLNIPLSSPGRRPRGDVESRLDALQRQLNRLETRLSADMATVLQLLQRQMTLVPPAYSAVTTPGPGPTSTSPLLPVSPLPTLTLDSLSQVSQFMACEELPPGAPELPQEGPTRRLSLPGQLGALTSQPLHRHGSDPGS

For `N#Cc1ccc(C(=O)CN2C(C(=O)c3ccccc3)=C(O)c3ccccc3S2(=O)=O)cc1`, the IC50 came to 40 nM in data set [1] and 9 µM in data set [2].
Turning to `O=C(CN1C(C(=O)c2ccccc2)=C(O)c2ccccc2S1(=O)=O)c1ccc([N+](=O)[O-])cc1`, the IC50 in [1] was determined as 30 nM.
Turning to `O=C(CN1C(C(=O)c2ccccc2)=C(O)c2ccccc2S1(=O)=O)c1ccccc1`, the half-life in data set [3] was 74.9 min; in data set [8], 330 min. The molecule also had an inhibition in data set [4] of 6%. Further, the results for the IC50 in data set [5] and in data set [2] were more than 100 µM and 7.8 µM, respectively. The molecule also registered a peak concentration (Cmax) in [6] of 1100 ng/mL. Moreover, in data set [7], the bioavailability was determined as 48.7%. This molecule also gave a CL in the data set filed under Rattus norvegicus of 0.4 L/h/kg.
As for `COC(=O)c1ccc(C(=O)CN2C(C(=O)c3ccccc3)=C(O)c3ccccc3S2(=O)=O)cc1`, in data set [1], the midpoint of inhibition, the IC50, lay at 31 nM.
Same read-out and setting: then `O=C(CN1C(C(=O)c2ccccc2)=C(O)c2ccccc2S1(=O)=O)c1ccc(-c2ccccc2)cc1`, with 28 nM.
On the same count and under the same terms, as for `O=C(O)c1ccc(C(=O)CN2C(C(=O)c3ccccc3)=C(O)c3ccccc3S2(=O)=O)cc1`, the figure is 720 nM.
